The text below walks through data of paper PMC10610256, “Development and Preclinical Evaluation of [^68Ga]BMSH as a New Potent Positron Emission Tomography Tracer for Imaging Programmed Death-Ligand 1 Expression” (Pharmaceuticals, 2023).

One data set has as its target T1, PD-L1 (Homo sapiens, UniProt Q9NZQ7).
T1 construct: expressed in transfected cells; host or cells: A549 cells stably transduced with hPD-L1 by lentivirus (A549-hPDL1)
Put plainly: Competitive cell-binding experiment against [^68Ga]BMSH. Conditions: A549-hPDL1 cells, 60 min.

For data set [1], the system named is A549-hPDL1 and A549 tumors. Put plainly: Micro-PET imaging, A549-hPDL1 versus A549 tumors. Type of data set: in vivo, BALB/c nude mice. To be noted: 60 min post-injection. As to the method:
For biodistribution and micro-PET imaging studies of [^68Ga]BMSH and [^18F]FDG, male BALB/c nude mice were implanted subcutaneously with 1–5 × 10^6 A549-hPDL1 cells and A549 cells behind right armpit. Mice were imaged or used in biodistribution studies when the tumor xenografts reached 5–10 mm in diameter. Dynamic micro-PET imaging studies were conducted in tumor-bearing nude mice (A549-hPDL1 and A549, n = 3 in each group) using the Madiclab PSA146 PET/CT/FMT instrument (Linyi, China). The images were reconstructed using a three-dimensional ordered-subset expectation maximum (OSEM) algorithm and were converted to the percentage of injected dose per gram of tissue (%ID/g) images. Tumor-bearing mice were intravenously injected with [^68Ga]BMSH (7.4 MBq/mouse) and [^18F]FDG (5.55 MBq/mouse), respectively. For the blocking experiment, the A549-hPDL1 tumor-bearing mice were co-injected with NOTA-BMSH (100 µg/mouse) and [^68Ga]BMSH. For data analysis, the regions of interest (ROIs) were manually drawn over the tumor and major organs on decay-corrected whole-body coronal images using PMOD software (version 4.3, PMOD Technologies Ltd., Zurich, Switzerland).

T1 sequence (Q9NZQ7 19-290): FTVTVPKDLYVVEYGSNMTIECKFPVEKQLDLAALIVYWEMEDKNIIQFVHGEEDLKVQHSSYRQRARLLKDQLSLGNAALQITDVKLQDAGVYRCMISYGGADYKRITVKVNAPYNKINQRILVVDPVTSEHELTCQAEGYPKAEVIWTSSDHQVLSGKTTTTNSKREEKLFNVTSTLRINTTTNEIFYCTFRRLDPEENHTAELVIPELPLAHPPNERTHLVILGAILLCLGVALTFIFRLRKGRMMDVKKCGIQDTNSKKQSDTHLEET

`CC(=O)NC1C(NC(=O)[C@H](CCC(=O)N[C@@H](CCC(=O)O)C(=O)N[C@@H](CC(=O)O)C(=O)NCCOCCOCC(=O)NCCNC(=O)[C@@H](CO)CNc2cc(C)c(OCc3cccc(-c4ccc5c(c4)OCCO5)c3C)cc2OCc2cccc(C#N)c2)NC(=O)COCCOCCNC(=O)CN2CCN(CC(=O)O)CCN(CC(=O)O)CC2)OC(CO)C(O)C1O` (some centres unmarked) [NOTA-BMSH] registered an IC50 on PD-L1 of 449 nM.
For [^18F]FDG, in data set [1], the “A549-hPDL1 tumor/A549 tumor uptake ratio” value is recorded as 1.08.

By IC50 is commonly meant the point on the concentration scale where inhibition reaches its midpoint. A higher IC50 goes with lower potency.
